Experimental data reported in patent publication US8592484B2, “Cosmetic composition containing calcium citrate and N-acylated aminoalcohol derivative to prevent dry skin and signs of cutaneous ageing” (Cognis IP Management GmbH, priority 2009, dated 2013).
Several values for one entry are separate records, joined by “and”; a condition that tells them apart may be missing. Identical values can stand only once. Marks after values point to notes of the source that are not given here.

How the values were obtained:
ceramidase = test: Ceramidase inhibition, enzymatic extract of PMA-activated HL60 cells, [14C]-C16 ceramide substrate; format: biochemical; conditions: 1 hour at 37° C., mean of triplicate
Experimental: HL60 cells activated with Phorbol 12-myristate 13-acetate (PMA) at 5 nM were cultured in 175 cm^2 flasks. […] The supernatant obtained after centrifugation constituted the enzymatic extract.
The substrate [^14C]—C16 ceramide (N-palmitoyl-D-Sphingosine) was prepared as follows:
Evaporation of the organic phase and dissolution in distilled water. […] After evaporation and addition of Triton and cholate, the purified substrate was solubilised in distilled water.
The reaction mixture was incubated at 37° C. during 1 hour. The reaction mixture consisted of 5 μl MgCl2 (50 mM), 25 μl enzymatic extract or buffer; 7.5 μl substrate and 12.5 μl product to be tested. The products to be tested were prepared 4× concentrated in buffer at the tested pH and contained 1% of ethanol in final.
The quantification of enzymatic degradation of substrate was realized by measuring of radioactivity in heptane phase. […] The mixture was vortexed and centrifuged at 12 000 g 5 minutes. […] Results are expressed as the % of control.

human keratinocytes [1] = test: MTT test, viability of human keratinocytes; format: cell-based; conditions: at the concentrations tested for involucrin
Experimental: (§1) Human keratinocytes were seeded in growth medium (standard medium MCDB153 completed by Fetal Calf Serum at 2%). After 3-4 days of incubation at 37° C., CO2=5%, the growth medium was exchanged by standard medium MCDB153 without FCS (untreated control), and with a range of concentrations of products to be tested. After 1 day of incubation at 37° C., CO2=5%, the lack of cytotoxicity of the different product and doses tested was recorded using MTT test, and the level of involucrin was measured by an ELISA method.

human keratinocytes [2] = test: Keratinocyte differentiation: involucrin by ELISA in primary culture of human keratinocytes; format: cell-based; conditions: for effect on the synthesis of the keratinocyte differentiation marker involucrin (in words): at the tested concentrations; for Involucrin (in % +/− SEM): 1 day incubation
Experimental: The purpose was to evaluate the potential of the products to stimulate the differentiation of human keratinocytes into corneocytes and therefore the formation of an optimal skin barrier. The products were tested on primary culture of human keratinocytes by measuring the quantity of synthesized involucrin through an ELISA method. Involucrin is a rod shaped protein of 68 kD released by keratinocytes of early spinous layers up to granular layer of human epidermis.
as §1
The results are expressed in % versus control and presented as a mean+/−SEM (standard error of mean) of 2 or 3 assays (different donors of keratinocytes) in duplicate or triplicate.

SMILES | Ceramidase activity in %/control (ceramidase; dose 5 μM) | Ceramidase activity in %/control (ceramidase; dose 50 μM) | Ceramidase activity in %/control (ceramidase; dose 500 μM) | viability (MTT test) of the human keratinocytes (human keratinocytes [1]) | effect on the synthesis of the keratinocyte differentiation marker involucrin (in words) (human keratinocytes [2]) | also measured
CCCCCCCC/C=C\CCCCCCCCNCC(O)CO (stereo not shown) [N-oleyl-(3 amino-1,2-propanediol)] | 81% | 78% | 71% | – | – | –
O.O.O.O.O=C([O-])CC(O)(CC(=O)[O-])C(=O)[O-].O=C([O-])CC(O)(CC(=O)[O-])C(=O)[O-].[Ca+2].[Ca+2].[Ca+2] [Tricalcium dicitrate tetrahydrate, Tricalcium citrate tetrahydrate] | – | – | – | not significantly changed | significantly enhance | effect on keratinocytes differentiation compared with Calcium chloride (human keratinocytes [2]; at equimolar doses of Ca2+, p<0.001 for Ca2+ 0.026 and 0.1 mM): more potent; Involucrin (in % +/− SEM) (human keratinocytes [2]; dose 0.0044 mM, 0.00025 % w/v (Ca2+: 0.013 mM)): 0.5 +/− 2.6^ % and 0.5 +/− 2.6%; Involucrin (in % +/− SEM) (human keratinocytes [2]; dose 0.0088 mM, 0.00050 % w/v (Ca2+: 0.026 mM)): 31.6 +/− 2.9 *** %; Involucrin (in % +/− SEM) (human keratinocytes [2]; dose 0.033 mM (Ca2+: 0.1 mM)): 73.4 +/− 3.7 *** %; Involucrin (in % +/− SEM) (human keratinocytes [2]; tricalcium dicitrate dose 0.1 mM (Ca2+ 0.3 mM)): 101.7 +/− 7.2 *** %
CCCCCCCC/C=C\CCCCCCCCNCCO [N-Oleyl-ethanolamine, reference compound] | 98% | 94% | 79% | – | – | –
[Ca+2].[Cl-].[Cl-] [CaCl2, Calcium chloride, reference compound] | – | – | – | not significantly changed | significantly enhance | Involucrin (in % +/− SEM) (human keratinocytes [2]; CaCl2 dose 0.1 mM (Ca2+: 0.1 mM)): 21.9 +/− 5.3 ** %; Involucrin (in % +/− SEM) (human keratinocytes [2]; dose 0.013 mM (Ca2+: 0.013 mM)): 3.4 +/− 4.6^ %; Involucrin (in % +/− SEM) (human keratinocytes [2]; dose 0.026 mM (Ca2+: 0.026 mM)): −1.4 +/− 4.6 ^ %; Involucrin (in % +/− SEM) (human keratinocytes [2]; dose 0.3 mM (Ca2+ 0.3 mM)): 84.4 +/− 1.9 *** %
